# Laboratory results from article PMC4447944 (The Journal of Biological Chemistry, 2015).
# pIC50: −log10 of the molar value.
# Assays:
# SMYD2 = SMYD2 (Homo sapiens, UniProt Q9NRG4); test: Thermal denaturation fluorometry (differential scanning fluorometry); assay type: binding; settings: 100 μM LLY-507
# Protocol: SMYD2 protein unfolding was monitored on a 384-well Roche Lightcycler480 II^TM RT-PCR machine using SYPRO® Orange as a reporter dye (Invitrogen, S6651). Excitation and emission filters were set at 465 and 580 nm, respectively; the temperature was continuously ramped from 25 to 95 °C at a rate of 0.11°C/s. The reaction mixture (6 μl/well) contained 3.9 μM SMYD2 protein and 100 μM compound in 20 mM Tris, pH 8.0, 150 mM NaCl, 10% glycerol, 2 mM tris(2-carboxyethyl)phosphine (TCEP), and 1% DMSO buffer. Triplicates were run along with protein without compound as a negative control.
# hABL1(F317I) = biological target: T1, hABL1(F317I) (Homo sapiens, UniProt P00519, F317I); test: KINOMEscan; assay type: binding
# T1 construct: purchased DiscoverX (KINOMEscan platform)
# hABL1(pM351T) = biological target: T2, hABL1(pM351T) (Homo sapiens, UniProt P00519, M351T); test: KINOMEscan; assay type: binding
# T2 construct: purchased DiscoverX (KINOMEscan platform)
# hABL1(Q252H) = biological target: T3, hABL1(Q252H) (Homo sapiens, UniProt P00519, Q252H); test: KINOMEscan; assay type: binding
# T3 construct: purchased DiscoverX (KINOMEscan platform)
# hABL1-p = biological target: T4, hABL1-p (Homo sapiens, UniProt P00519); test: KINOMEscan; assay type: binding
# T4 construct: purchased DiscoverX (KINOMEscan platform)
# hAMPK-alpha1 = biological target: T5, hAMPK-alpha1 (Homo sapiens, UniProt Q13131); test: KINOMEscan; assay type: binding
# T5 construct: purchased DiscoverX
# T5 sequence (Q13131 whole entry): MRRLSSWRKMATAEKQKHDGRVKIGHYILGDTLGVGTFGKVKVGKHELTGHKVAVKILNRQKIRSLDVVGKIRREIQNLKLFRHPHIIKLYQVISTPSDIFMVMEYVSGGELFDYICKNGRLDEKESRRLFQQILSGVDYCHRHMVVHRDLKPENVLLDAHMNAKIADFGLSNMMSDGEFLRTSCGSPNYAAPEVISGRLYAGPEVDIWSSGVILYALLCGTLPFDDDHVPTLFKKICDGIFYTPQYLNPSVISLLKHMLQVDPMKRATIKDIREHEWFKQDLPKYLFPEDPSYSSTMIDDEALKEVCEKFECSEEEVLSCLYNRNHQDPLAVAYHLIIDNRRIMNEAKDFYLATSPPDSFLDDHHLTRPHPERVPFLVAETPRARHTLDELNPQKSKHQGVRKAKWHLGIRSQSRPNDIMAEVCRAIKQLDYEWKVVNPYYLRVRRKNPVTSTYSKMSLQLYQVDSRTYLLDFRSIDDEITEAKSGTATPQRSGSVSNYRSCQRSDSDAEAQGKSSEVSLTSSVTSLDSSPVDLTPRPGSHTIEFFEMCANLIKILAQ
# hAXL = biological target: T6, hAXL (Homo sapiens, UniProt P30530); test: KINOMEscan; assay type: binding
# T6 construct: purchased DiscoverX
# T6 sequence (P30530 26-894): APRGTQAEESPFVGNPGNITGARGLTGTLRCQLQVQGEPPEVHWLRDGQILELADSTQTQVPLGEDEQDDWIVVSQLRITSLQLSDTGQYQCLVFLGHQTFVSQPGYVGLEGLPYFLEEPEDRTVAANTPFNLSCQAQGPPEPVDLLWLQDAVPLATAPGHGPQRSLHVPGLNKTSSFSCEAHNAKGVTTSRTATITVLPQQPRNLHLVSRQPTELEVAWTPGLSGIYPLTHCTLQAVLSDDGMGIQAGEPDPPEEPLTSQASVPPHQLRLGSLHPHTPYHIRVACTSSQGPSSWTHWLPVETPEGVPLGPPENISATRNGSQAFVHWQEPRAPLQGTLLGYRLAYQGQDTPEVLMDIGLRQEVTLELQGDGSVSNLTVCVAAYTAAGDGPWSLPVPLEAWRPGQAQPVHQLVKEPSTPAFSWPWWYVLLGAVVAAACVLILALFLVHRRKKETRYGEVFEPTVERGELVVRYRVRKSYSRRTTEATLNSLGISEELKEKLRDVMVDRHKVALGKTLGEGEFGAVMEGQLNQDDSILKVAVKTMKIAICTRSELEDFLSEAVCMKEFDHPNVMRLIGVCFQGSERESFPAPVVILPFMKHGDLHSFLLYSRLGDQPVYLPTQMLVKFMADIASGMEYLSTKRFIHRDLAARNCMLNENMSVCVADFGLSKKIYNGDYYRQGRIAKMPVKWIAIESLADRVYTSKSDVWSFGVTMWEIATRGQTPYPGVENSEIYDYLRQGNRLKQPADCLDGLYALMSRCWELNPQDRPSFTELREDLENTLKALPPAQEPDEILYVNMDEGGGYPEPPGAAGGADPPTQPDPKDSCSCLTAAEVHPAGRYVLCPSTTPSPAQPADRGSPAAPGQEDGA
# hCAMK1G = biological target: T7, hCAMK1G (Homo sapiens, UniProt Q96NX5); test: KINOMEscan; assay type: binding
# T7 construct: purchased DiscoverX
# T7 sequence (Q96NX5 whole entry): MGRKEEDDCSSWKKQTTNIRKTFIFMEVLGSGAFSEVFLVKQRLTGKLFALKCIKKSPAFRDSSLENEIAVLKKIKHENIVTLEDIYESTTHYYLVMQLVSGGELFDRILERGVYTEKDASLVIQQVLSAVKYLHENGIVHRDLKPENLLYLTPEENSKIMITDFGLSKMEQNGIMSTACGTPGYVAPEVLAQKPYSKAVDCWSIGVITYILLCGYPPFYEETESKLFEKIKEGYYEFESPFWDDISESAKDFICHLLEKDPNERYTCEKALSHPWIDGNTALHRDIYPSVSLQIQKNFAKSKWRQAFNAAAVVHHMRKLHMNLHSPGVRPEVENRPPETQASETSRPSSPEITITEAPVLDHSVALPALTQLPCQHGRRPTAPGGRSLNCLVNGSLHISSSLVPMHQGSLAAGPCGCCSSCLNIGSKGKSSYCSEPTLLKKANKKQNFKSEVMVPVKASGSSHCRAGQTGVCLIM
# hCAMK2D = biological target: T8, hCAMK2D (Homo sapiens, UniProt Q13557); test: KINOMEscan; assay type: binding
# T8 construct: purchased DiscoverX
# hCLK4 = biological target: T9, hCLK4 (Homo sapiens, UniProt Q9HAZ1); test: KINOMEscan; assay type: binding
# T9 construct: purchased DiscoverX (KINOMEscan platform)
# hCSNK1A1 = biological target: T10, hCSNK1A1 (Homo sapiens, UniProt P48729); test: KINOMEscan; assay type: binding
# T10 construct: purchased DiscoverX (KINOMEscan platform)
# hDDR2 = biological target: T11, hDDR2 (Homo sapiens, UniProt Q16832); test: KINOMEscan; assay type: binding
# T11 construct: purchased DiscoverX (KINOMEscan platform)
# T11 sequence (Q16832 22-855): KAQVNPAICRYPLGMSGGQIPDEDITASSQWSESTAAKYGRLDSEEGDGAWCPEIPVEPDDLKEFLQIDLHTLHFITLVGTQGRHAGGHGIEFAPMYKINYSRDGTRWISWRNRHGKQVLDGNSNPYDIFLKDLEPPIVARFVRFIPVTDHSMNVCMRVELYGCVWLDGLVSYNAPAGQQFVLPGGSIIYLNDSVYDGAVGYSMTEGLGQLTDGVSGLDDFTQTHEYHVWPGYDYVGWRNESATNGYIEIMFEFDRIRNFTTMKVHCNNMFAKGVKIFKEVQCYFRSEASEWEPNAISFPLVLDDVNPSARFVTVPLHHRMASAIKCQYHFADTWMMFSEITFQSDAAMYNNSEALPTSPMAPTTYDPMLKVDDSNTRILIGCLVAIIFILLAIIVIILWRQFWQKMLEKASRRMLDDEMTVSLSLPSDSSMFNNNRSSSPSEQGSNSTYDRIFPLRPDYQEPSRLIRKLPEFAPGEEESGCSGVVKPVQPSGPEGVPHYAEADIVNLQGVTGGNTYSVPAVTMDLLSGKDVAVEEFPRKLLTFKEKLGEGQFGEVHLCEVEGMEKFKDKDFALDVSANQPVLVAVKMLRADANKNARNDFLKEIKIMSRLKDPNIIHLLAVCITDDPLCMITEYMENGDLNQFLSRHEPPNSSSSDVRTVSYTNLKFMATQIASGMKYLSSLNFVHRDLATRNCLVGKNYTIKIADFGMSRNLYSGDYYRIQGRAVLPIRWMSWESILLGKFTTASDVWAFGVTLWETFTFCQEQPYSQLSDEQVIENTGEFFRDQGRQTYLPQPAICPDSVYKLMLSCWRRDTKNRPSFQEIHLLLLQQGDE
# hEPHB3 = biological target: T12, hEPHB3 (Homo sapiens, UniProt P54753); test: KINOMEscan; assay type: binding
# T12 construct: purchased DiscoverX
# hHIPK4 = biological target: T13, hHIPK4 (Homo sapiens, UniProt Q8NE63); test: KINOMEscan; assay type: binding
# T13 construct: purchased DiscoverX
# hJNK2 = biological target: T14, hJNK2 (Homo sapiens, UniProt P45984); test: KINOMEscan; assay type: binding
# T14 construct: purchased DiscoverX (KINOMEscan panel)
# hLOK = biological target: T15, hLOK (Homo sapiens, UniProt O94804); test: KINOMEscan; assay type: binding
# T15 construct: purchased DiscoverX (KINOMEscan platform)
# hLTK = biological target: T16, hLTK (Homo sapiens, UniProt P29376); test: KINOMEscan; assay type: binding
# T16 construct: purchased DiscoverX (KINOMEscan platform)
# hMAP4K4 = biological target: T17, hMAP4K4 (Homo sapiens, UniProt O95819); test: KINOMEscan; assay type: binding
# T17 construct: purchased DiscoverX (KINOMEscan platform)
# hMAPKAPK5 = biological target: T18, hMAPKAPK5 (Homo sapiens, UniProt Q8IW41); test: KINOMEscan; assay type: binding
# T18 construct: purchased DiscoverX
# T18 sequence (Q8IW41 whole entry): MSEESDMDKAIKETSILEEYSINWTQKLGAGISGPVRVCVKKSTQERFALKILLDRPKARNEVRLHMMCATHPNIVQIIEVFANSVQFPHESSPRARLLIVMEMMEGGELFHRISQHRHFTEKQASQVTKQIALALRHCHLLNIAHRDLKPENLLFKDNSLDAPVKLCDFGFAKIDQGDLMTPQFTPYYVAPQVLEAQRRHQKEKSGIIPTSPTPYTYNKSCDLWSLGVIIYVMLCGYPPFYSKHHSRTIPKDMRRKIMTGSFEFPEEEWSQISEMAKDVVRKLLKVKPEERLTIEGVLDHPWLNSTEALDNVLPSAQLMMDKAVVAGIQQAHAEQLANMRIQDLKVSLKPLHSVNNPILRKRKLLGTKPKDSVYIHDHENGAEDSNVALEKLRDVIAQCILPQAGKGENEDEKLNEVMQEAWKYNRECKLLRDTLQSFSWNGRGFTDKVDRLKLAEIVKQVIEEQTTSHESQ
# hMARK4 = biological target: T19, hMARK4 (Homo sapiens, UniProt Q96L34); test: KINOMEscan; assay type: binding
# T19 construct: purchased DiscoverX
# hMEK1 = biological target: T20, hMEK1 (Homo sapiens, UniProt Q02750); test: KINOMEscan; assay type: binding
# T20 construct: purchased DiscoverX
# hMEK3 = biological target: T21, hMEK3 (Homo sapiens, UniProt P46734); test: KINOMEscan; assay type: binding
# T21 construct: purchased DiscoverX
# hRSK2(Kin.Dom.1-N-term) = biological target: T22, hRSK2(Kin.Dom.1-N-term) (Homo sapiens, UniProt P51812); test: KINOMEscan; assay type: binding
# T22 construct: hRSK2(Kin.Dom.1-N-term); purchased DiscoverX (KINOMEscan platform)
# hSGK3 = biological target: T23, hSGK3 (Homo sapiens, UniProt Q96BR1); test: KINOMEscan; assay type: binding
# T23 construct: purchased DiscoverX (KINOMEscan platform)
# hSRPK3 = biological target: T24, hSRPK3 (Homo sapiens, UniProt Q9UPE1); test: KINOMEscan; assay type: binding
# T24 construct: purchased DiscoverX (KINOMEscan platform)
# hTXK = biological target: T25, hTXK (Homo sapiens, UniProt P42681); test: KINOMEscan; assay type: binding
# T25 construct: purchased DiscoverX
# [1] = biological target: T26, hTYK2(JH2Dom.-pseudokinase) (Homo sapiens, UniProt P29597); test: KINOMEscan; assay type: binding
# T26 construct: hTYK2(JH2Dom.-pseudokinase); purchased DiscoverX
# T26 sequence (P29597 589-875 limits assumed): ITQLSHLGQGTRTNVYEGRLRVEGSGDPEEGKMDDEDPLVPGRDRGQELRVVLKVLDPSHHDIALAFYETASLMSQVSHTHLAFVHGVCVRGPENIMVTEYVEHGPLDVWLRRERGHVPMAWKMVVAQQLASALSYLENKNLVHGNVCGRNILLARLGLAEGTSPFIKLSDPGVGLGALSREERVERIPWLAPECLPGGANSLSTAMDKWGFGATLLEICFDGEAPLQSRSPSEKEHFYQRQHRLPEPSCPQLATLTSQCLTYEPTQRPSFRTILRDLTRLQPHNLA
# hULK1 = biological target: T27, hULK1 (Homo sapiens, UniProt O75385); test: KINOMEscan; assay type: binding
# T27 construct: purchased DiscoverX
# hVRK2 = biological target: T28, hVRK2 (Homo sapiens, UniProt Q86Y07); test: KINOMEscan; assay type: binding
# T28 construct: purchased DiscoverX
# hYES = biological target: T29, hYES (Homo sapiens, UniProt P07947); test: KINOMEscan; assay type: binding
# T29 construct: purchased DiscoverX
# hERβ = biological target: T30, hERβ (Homo sapiens, UniProt Q92731); test: Nuclear hormone receptor assay (Eurofins-CEREP); settings: read-out: Relative IC50
# T30 construct: Eurofins-CEREP
# T30 sequence (Q92731 whole entry): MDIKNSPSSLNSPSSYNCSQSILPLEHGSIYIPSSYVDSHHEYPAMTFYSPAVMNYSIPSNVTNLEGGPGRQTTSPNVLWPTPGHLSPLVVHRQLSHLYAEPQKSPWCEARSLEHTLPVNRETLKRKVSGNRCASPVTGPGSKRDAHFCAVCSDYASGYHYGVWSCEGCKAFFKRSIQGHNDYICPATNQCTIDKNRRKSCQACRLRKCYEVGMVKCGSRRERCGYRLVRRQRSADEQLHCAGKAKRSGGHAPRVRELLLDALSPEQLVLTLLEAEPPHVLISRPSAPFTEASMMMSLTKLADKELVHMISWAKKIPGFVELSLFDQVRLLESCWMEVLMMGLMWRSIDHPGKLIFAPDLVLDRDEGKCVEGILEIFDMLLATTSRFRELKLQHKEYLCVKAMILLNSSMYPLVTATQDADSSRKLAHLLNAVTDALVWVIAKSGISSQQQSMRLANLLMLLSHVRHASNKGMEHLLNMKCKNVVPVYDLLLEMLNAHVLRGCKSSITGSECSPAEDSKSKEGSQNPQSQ
# CYP2C9 = biological target: T31, CYP2C9 (Homo sapiens, UniProt P11712); test: Cytochrome p450 inhibition (Eurofins-CEREP); assay type: in vitro ADME
# T31 construct: Eurofins-CEREP
# T31 sequence (P11712 whole entry, species assumed): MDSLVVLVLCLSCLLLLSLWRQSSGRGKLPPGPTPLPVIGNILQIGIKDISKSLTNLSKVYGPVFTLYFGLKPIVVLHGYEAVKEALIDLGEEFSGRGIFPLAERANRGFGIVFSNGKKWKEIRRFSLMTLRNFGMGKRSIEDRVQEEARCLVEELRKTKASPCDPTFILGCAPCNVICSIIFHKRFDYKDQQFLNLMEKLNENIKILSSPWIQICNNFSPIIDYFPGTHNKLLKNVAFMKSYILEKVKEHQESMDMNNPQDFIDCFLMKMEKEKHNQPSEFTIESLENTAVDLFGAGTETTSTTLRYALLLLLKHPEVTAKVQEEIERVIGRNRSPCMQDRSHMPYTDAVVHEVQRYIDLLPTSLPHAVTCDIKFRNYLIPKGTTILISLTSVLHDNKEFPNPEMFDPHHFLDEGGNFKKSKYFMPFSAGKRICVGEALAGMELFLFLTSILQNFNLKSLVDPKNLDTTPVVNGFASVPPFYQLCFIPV
# hADRβ1 = hADRβ1 (Homo sapiens, UniProt P08588); test: cAMP Agonist (Eurofins-CEREP); settings: @ 10 μM
# hOPRm1 = hOPRm1 (Homo sapiens, UniProt P35372); test: cAMP Agonist (Eurofins-CEREP); settings: @ 1 μM
# hD2L = hD2L (Homo sapiens, UniProt P14416); test: β-arrestin Antagonist (Eurofins-CEREP); settings: read-out: % Effect, Inhibition
# hH1 = hH1 (Homo sapiens, UniProt P35367); test: Ca Mobilization Potentiation (Eurofins-CEREP); settings: @ 10 μM
# Sequence of SMYD2 (Q9NRG4 whole entry): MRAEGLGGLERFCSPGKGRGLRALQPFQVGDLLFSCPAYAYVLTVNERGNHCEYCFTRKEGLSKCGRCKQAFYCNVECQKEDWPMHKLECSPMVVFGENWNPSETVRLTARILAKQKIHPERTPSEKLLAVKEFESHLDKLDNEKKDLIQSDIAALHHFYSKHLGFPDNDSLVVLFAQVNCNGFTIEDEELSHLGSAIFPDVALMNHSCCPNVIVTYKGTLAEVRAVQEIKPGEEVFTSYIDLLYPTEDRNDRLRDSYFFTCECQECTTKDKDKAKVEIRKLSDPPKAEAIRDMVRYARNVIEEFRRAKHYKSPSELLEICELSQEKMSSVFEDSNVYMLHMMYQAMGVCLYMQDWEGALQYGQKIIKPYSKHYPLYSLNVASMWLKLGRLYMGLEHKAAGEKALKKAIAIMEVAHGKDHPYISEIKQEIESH
structure (smiles),measurement,setting,value
"Cc1cn(CCN2CCN(c3ccccc3-c3cc(C#N)cc(C(=O)NCCCN4CCCC4)c3)CC2)c2ccccc12 [LLY-507, 3-cyano-5-{2-[4-[2-(3-methylindol-1-yl)ethyl]piperazin-1-yl]-phenyl}-N-[(3-pyrrolidin-1-yl)propyl]benzamide]",increase in thermal stability of SMYD2,SMYD2,5 °C
same,Tm of SMYD2 in presence of compound,SMYD2; SMYD2 alone Tm = 49 °C,54 °C
same,pIC50,hABL1(F317I),< 4.70
same,pIC50,hABL1(pM351T),< 4.70
same,pIC50,hABL1(Q252H),< 4.70
same,pIC50,hABL1-p,< 4.70
same,pIC50,hAMPK-alpha1,< 4.70
same,pIC50,hAXL,< 4.70
same,pIC50,hCAMK1G,< 4.70
same,pIC50,hCAMK2D,< 4.70
same,pIC50,hCLK4,< 4.70
same,pIC50,hCSNK1A1,< 4.70
same,pIC50,hDDR2,< 4.70
same,pIC50,hEPHB3,< 4.70
same,pIC50,hHIPK4,< 4.70
same,pIC50,hJNK2,< 4.70
same,pIC50,hLOK,< 4.70
same,pIC50,hLTK,< 4.70
same,pIC50,hMAP4K4,< 4.70
same,pIC50,hMAPKAPK5,< 4.70
same,pIC50,hMARK4,< 4.70
same,pIC50,hMEK1,< 4.70
same,pIC50,hMEK3,< 4.70
same,pIC50,hRSK2(Kin.Dom.1-N-term),< 4.70
same,pIC50,hSGK3,< 4.70
same,pIC50,hSRPK3,< 4.70
same,pIC50,hTXK,< 4.70
same,pIC50,[1],< 4.70
same,pIC50,hULK1,< 4.70
same,pIC50,hVRK2,< 4.70
same,pIC50,hYES,< 4.70
same,pIC50,hERβ,< 5.00
same,% inhibition @ 10 μM,CYP2C9,34.2%
same,"% Effect, Stimulation",hADRβ1,52.7%
same,"% Effect, Stimulation",hOPRm1,7.4%
same,inhibition at 10 µM,hD2L,29.8%
same,"% Effect, Potentiation",hH1,-8.5%
